Results as given in patent US6248305A, “Boron heterocycle steroid mimics and associated pharmaceutical compositions and methods of use” (SRI International, priority 2000, dated 2001).

Legend:
MCF-7 cells = assay: Antiproliferative assay, MCF-7 cells, alamar Blue; type: cell-based
Description: MCF-7 cells were obtained from the American Type Culture Collection (ATCC, Rockville, Md.). Exponentially growing cells were plated (96-well plates) in MEM (minimal essential medium) containing NaHCO3, CCD (charcoal-coated dextran)-stripped 10% FCS (fetal calf serum), and glycine. Cultures were incubated at 37° C. for 1 day, then treated with target by replacing the medium with 100 μL MEM containing supplements and target (3 wells at each of 5 concentrations). The relative effect of each concentration was compared to that of β-estradiol (positive control) by the alamar Blue™ assay (Biosource International),in which the dye is reduced by cellular mitochondrial enzymes to a soluble fluorophore with an intensity directly proportional to cell number. After cultures were incubated with target, alamar Blue™ diluted to 20% in MEM was added (100 μL/well) and cells were incubated for about 4 h, until a color change indicated sufficient amounts of reduced dye for quantitation. Relative cell number was evaluated directly from the plates by fluorimetry (560 nm excitation, 590 nm detection) on a Millipore 2300 CytoFluor. The concentration at which 50% effectiveness is seen (EC50) was calculated from statistically significant, reproducible effects. Statistical analysis was performed using JMP software (SAS Institute).

estrogen receptor = details: cited from earlier work
[1] = concentration 10^-5 (unit not given)
[2] = concentration 10^-6 (unit not given)
[3] = concentration 10^-7 (unit not given)
[4] = concentration 10^-8 (unit not given)
[5] = concentration 10^-9 (unit not given)

Molecule | % Inhibition (MCF-7 cells; [1]) [%] | % Inhibition (MCF-7 cells; [2]) [%] | % Inhibition (MCF-7 cells; [3]) [%] | % Inhibition (MCF-7 cells; [4]) [%] | % Inhibition (MCF-7 cells; [5]) [%] | affinity for the estrogen receptor (estrogen receptor)
COc1cccc(N2N=Cc3cc(O)ccc3B2O)n1 [Compound 15, 1,2-dihydro-1,6-dihydroxy-2-(2-methoxy-6-pyridinyl)-2,3,1-benzodiazaborine] | 62 | 3 | 0 | 0 | 0 | 
O=C1OB2c3ccc(O)cc3C=NN2c2ccccc21 [Compound 4, 1,2-dihydro-1,6-dihydroxy-2-(2-carboxyphenyl)-2,3,1-benzodiazaborine lactone] | 13 | 4 | 2 | 6 | 0 | 
OB1c2ccc(O)cc2C=NN1c1ccccn1 [Compound 11, 1,2-dihydro-1,6-dihydroxy-2-(6-pyridinyl)-2,3,1-benzodiazaborine] | 55 | 10 | 8 | 8 | 5 | 
CC/C(=C(\c1ccccc1)c1ccc(OCCN(C)C)cc1)c1ccccc1 [tamoxifen, reference compound] | 95 | 54 | 29 | 5 | 0 | 
Estrone and Estradiol-17β, 3-carboranylmethyl Ethers |  |  |  |  |  | 0.5
